Experimental data as given in ChEMBL document CHEMBL3856260, “A synergistic antitumor effect of polyphyllin I and formosanin C on hepatocarcinoma cells” (Bioorg Med Chem Lett, 2016).
The source made the active and inactive calls. The calls are words filed in the database; no cut-off is given here.

Assays:
[1] = Cytotoxicity against human HepG2 cells after 24 hrs by MTT assay; format: functional, cell-based; settings: HepG2, 24 h
[2] = Cytotoxicity against human HepG2 cells assessed as combination index at ED30 using 1:1 compound to formosanin C incubated for 24 hrs by MTT assay; format: functional
HepG2 [3] = assay: Antimigratory activity in human HepG2 cells at 1 uM after 24 hrs by wound healing assay in presence of FC; format: functional, cell-based
[4] = Cell cycle arrest in human HepG2 cells assessed as accumulation at S phase at 1 uM after 24 hrs by propidium iodide staining-based flow cytometry in presence of formosanin C (reference value: 42.33%); format: functional
[5] = Cell cycle arrest in human HepG2 cells assessed as accumulation at G1 phase at 1 uM after 24 hrs by propidium iodide staining-based flow cytometry(reference value: 55.62%); format: functional
HepG2 [6] = assay: Induction of apoptosis in human HepG2 cells assessed as downregulation of NF-kappaB […] level at 1 uM incubated for 24 hrs by RT-PCR analysis in presence of formosanin C; format: functional, cell-based
[7] = Cytotoxicity against human HepG2 cells assessed as combination index at ED75 using 1:1 compound to formosanin C incubated for 24 hrs by MTT assay; format: functional
[8] = Cell cycle arrest in human HepG2 cells assessed as accumulation at G2 phase at 1 uM after 24 hrs by propidium iodide staining-based flow cytometry(reference value: 2.04%); format: functional
HepG2 [9] = assay: Change in PCNA mRNA level in human HepG2 cells at 1 uM incubated for 24 hrs by RT-PCR analysis in presence of formosanin C relative to polyphyllin I alone treatment; format: functional, cell-based
HepG2 [10] = assay: Induction of nuclear fragmentation in human HepG2 cells at 1 uM after 24 hrs by Hoechst 33258 staining-based fluorescence microscopic analysis; format: functional, cell-based
[11] = Induction of apoptosis in human HepG2 cells assessed as upregulation of Bax level at 1 uM incubated for 24 hrs by Western blot analysis in presence of formosanin C; format: functional, cell-based
HepG2 [12] = assay: Induction of cytochrome c release in human HepG2 cells by Western blot analysis in presence of FC; format: functional, cell-based
HepG2 [13] = assay: Increase in cyclin E mRNA level in human HepG2 cells at 1 uM incubated for 24 hrs by RT-PCR analysis in presence of formosanin C relative to polyphyllin I alone treatment; format: functional, cell-based
[14] = Induction of apoptosis in human HepG2 cells assessed as upregulation of Bax mRNA level at 1 uM incubated for 24 hrs by RT-PCR analysis in presence of formosanin C; format: functional, cell-based
[15] = Induction of apoptosis in human HepG2 cells assessed as upregulation of p53 mRNA level at 1 uM incubated for 24 hrs by RT-PCR analysis in presence of formosanin C; format: functional, cell-based
[16] = Suppression of MMP9 expression in human HepG2 cells assessed as reduction in enzyme activity at 1 uM after 24 hrs by zymographic analysis in presence of FC; format: functional, cell-based
HepG2 [17] = assay: Induction of nuclear fragmentation in human HepG2 cells at 0.5 uM after 24 hrs by Hoechst 33258 staining-based fluorescence microscopic analysis in presence of formosanin C; format: functional, cell-based
[18] = Cytotoxicity against human Bel7402 cells assessed as combination index at ED75 using 1:1 compound to formosanin C incubated for 24 hrs by MTT assay; format: functional, Bel-7402
HepG2 [19] = assay: Increase in p21 mRNA level in human HepG2 cells at 1 uM incubated for 24 hrs by RT-PCR analysis in presence of formosanin C relative to polyphyllin I alone treatment; format: functional, cell-based
HepG2 [20] = assay: Decrease in cyclin E level in human HepG2 cells at 1 uM incubated for 24 hrs Western blot analysis in presence of FC; format: functional, cell-based
[21] = Cytotoxicity against human HepG2 cells assessed as combination index at ED50 using 1:1 compound to formosanin C incubated for 24 hrs by MTT assay; format: functional
[22] = Cell cycle arrest in human HepG2 cells assessed as accumulation at G2 phase at 1 uM after 24 hrs by propidium iodide staining-based flow cytometry in presence of formosanin C (reference value: 2.04%); format: functional
[23] = Cytotoxicity against human HepG2 cells assessed as combination index at ED90 using 1:1 compound to formosanin C incubated for 24 hrs by MTT assay; format: functional
[24] = Induction of apoptosis in human HepG2 cells assessed as upregulation of caspase3 level at 1 uM incubated for 24 hrs by Western blot analysis in presence of formosanin C; format: functional, cell-based
HepG2 [25] = assay: Induction of chromatin compaction in human HepG2 cells at 0.5 uM after 24 hrs by Hoechst 33258 staining-based fluorescence microscopic analysis in presence of formosanin C; format: functional, cell-based
[26] = Cell cycle arrest in human HepG2 cells assessed as accumulation at G1 phase at 1 uM after 24 hrs by propidium iodide staining-based flow cytometry in presence of formosanin C (reference value: 55.62%); format: functional
HepG2 [27] = assay: Induction of cytochrome c release in human HepG2 cells by Western blot analysis; format: functional, cell-based
HepG2 [28] = assay: Induction of apoptosis in human HepG2 cells at 1 uM after 24 hrs by propidium iodide staining-based flow cytometry in presence of formosanin C (reference value: 3.01%); format: functional
HepG2 [29] = assay: Induction mitochondrial membrane potential changes in human HepG2 cells at 1 uM after 24 hrs by rhodamine 123 staining-based flow cytometry (reference value: 23.8+/-2.3%); format: functional
[30] = Induction of apoptosis in human HepG2 cells assessed as upregulation of caspase3 mRNA level at 1 uM incubated for 24 hrs by RT-PCR analysis in presence of formosanin C; format: functional, cell-based
HepG2 [31] = assay: Decrease in CDK2 level in human HepG2 cells at 1 uM incubated for 24 hrs by Western blot analysis in presence of FC; format: functional, cell-based
[32] = Induction of apoptosis in human HepG2 cells assessed as upregulation of p53 level at 1 uM incubated for 24 hrs by Western blot analysis in presence of formosanin C; format: functional, cell-based
HepG2 [33] = assay: Induction of apoptosis in human HepG2 cells at 1 uM after 24 hrs by propidium iodide staining-based flow cytometry(reference value: 3.01%); format: functional
HepG2 [34] = assay: Decrease in CDK2 level in human HepG2 cells at 1 uM incubated for 24 hrs by Western blot analysis in presence of formosanin C relative to relative to polyphyllin I alone treatment; format: functional, cell-based
HepG2 [35] = assay: Induction of Bax translocation from cytosol to mitochondria in human HepG2 cells by Western blot analysis; format: functional, cell-based
[36] = Cytotoxicity against human Bel7402 cells after 24 hrs by MTT assay; format: functional, cell-based; settings: Bel-7402, 24 h
HepG2 [37] = assay: Increase in p21 level in human HepG2 cells at 1 uM incubated for 24 hrs by Western blot analysis in presence of FC; format: functional, cell-based
[38] = Suppression of MMP9 expression in human HepG2 cells at 1 uM after 24 hrs by Western blot analysis in presence of FC; format: functional, cell-based
HepG2 [39] = assay: Change in PCNA mRNA level in human HepG2 cells at 1 uM incubated for 24 hrs by RT-PCR analysis in presence of formosanin C relative to formosanin C treatment; format: functional, cell-based
HepG2 [40] = assay: Induction of apoptosis in human HepG2 cells assessed as downregulation of Bcl2 mRNA level at 1 uM incubated for 24 hrs by RT-PCR analysis in presence of formosanin C; format: functional, cell-based
[41] = Cytotoxicity against human Bel7402 cells assessed as combination index at ED30 using 1:1 compound to formosanin C incubated for 24 hrs by MTT assay; format: functional, Bel-7402
[42] = Cytotoxicity against human Bel7402 cells assessed as combination index at ED90 using 1:1 compound to formosanin C incubated for 24 hrs by MTT assay; format: functional, Bel-7402
HepG2 [43] = assay: Induction of chromatin compaction in human HepG2 cells at 1 uM after 24 hrs by Hoechst 33258 staining-based fluorescence microscopic analysis; format: functional, cell-based
[44] = Cell cycle arrest in human HepG2 cells assessed as accumulation at S phase at 1 uM after 24 hrs by propidium iodide staining-based flow cytometry(reference value: 42.33%); format: functional
HepG2 [45] = assay: Induction of Bax translocation from cytosol to mitochondria in human HepG2 cells by Western blot analysis in presence of FC; format: functional, cell-based
HepG2 [46] = assay: Induction mitochondrial membrane potential changes in human HepG2 cells at 1 uM after 24 hrs by rhodamine 123 staining-based flow cytometry in presence of formosanin C (reference value: 23.8+/-2.3%); format: functional
[47] = Cytotoxicity against human Bel7402 cells assessed as combination index at ED50 using 1:1 compound to formosanin C incubated for 24 hrs by MTT assay; format: functional, Bel-7402

Question: Which results are given for `C[C@@H]1CC[C@@]2(OC1)O[C@H]1C[C@H]3[C@@H]4CC=C5C[C@@H](O[C@@H]6O[C@H](CO)[C@@H](O[C@@H]7O[C@@H](CO)[C@H](O)[C@H]7O)[C@H](O)[C@H]6O[C@@H]6O[C@@H](C)[C@H](O)[C@@H](O)[C@H]6O)CC[C@]5(C)[C@H]4CC[C@]3(C)[C@H]1[C@@H]2C`?
Answer: IC50 [1]: 4.01 µM; CI [2]: 0.62; Activity (HepG2 [3]): Active; Activity [4]: 28.7%; Activity [5]: 59.5%; Activity (HepG2 [6]): Active; CI [7]: 0.56; Activity [8]: 2.15%; Activity (HepG2 [9]): Active; Activity (HepG2 [10]): Active; Activity [11]: Active; Activity (HepG2 [12]): Active; Activity (HepG2 [13]): Active; Activity [14]: Active; Activity [15]: Active; Activity [16]: Active; Activity (HepG2 [17]): Active; CI [18]: 0.52; Activity (HepG2 [19]): Active; Activity (HepG2 [20]): Active; CI [21]: 0.58; Activity [22]: 2.63%; CI [23]: 0.54; Activity [24]: Active; Activity (HepG2 [25]): Active; Activity [26]: 68.7%; Activity (HepG2 [27]): Active; Activity (HepG2 [28]): 7.52%; Activity (HepG2 [29]): 27.9%; Activity [30]: Active; Activity (HepG2 [31]): Active; Activity [32]: Active; Activity (HepG2 [33]): 5.28%; Activity (HepG2 [34]): Active; Activity (HepG2 [35]): Active; IC50 [36]: 4.74 µM; Activity (HepG2 [37]): Active; Activity [38]: Active; Activity (HepG2 [39]): Active; Activity (HepG2 [40]): Active; CI [41]: 0.67; CI [42]: 0.46; Activity (HepG2 [43]): Active; Activity [44]: 38.4%; Activity (HepG2 [45]): Active; Activity (HepG2 [46]): 40.6%; CI [47]: 0.58
